Entries after “also recorded” stand apart in the source; their conditions may differ. Read-outs that look alike come from different tables or passages of the source.
What was measured:
GABA-A α5 receptors = molecular target: T1, GABA-A α5 receptors (Rattus norvegicus, UniProt P18508+P19969); details: Wistar rats prenatally exposed to valproic acid; cited from earlier work
T1 construct: host or cells: Wistar rats in vivo (valproic acid model)

GABA-A α5 [1] = molecular target: T2, GABA-A α5 (Homo sapiens, UniProt P18507+P31644); assay: Resting state EEG, Phase 1 SAD/MAD study BP40091 (alogabat vs placebo); type: in vivo, human (adult healthy volunteers); set-up: endogenous in cells; host or cells: brain of adult healthy volunteers, in vivo (resting-state EEG)
T2 sequence (P31644 32-462): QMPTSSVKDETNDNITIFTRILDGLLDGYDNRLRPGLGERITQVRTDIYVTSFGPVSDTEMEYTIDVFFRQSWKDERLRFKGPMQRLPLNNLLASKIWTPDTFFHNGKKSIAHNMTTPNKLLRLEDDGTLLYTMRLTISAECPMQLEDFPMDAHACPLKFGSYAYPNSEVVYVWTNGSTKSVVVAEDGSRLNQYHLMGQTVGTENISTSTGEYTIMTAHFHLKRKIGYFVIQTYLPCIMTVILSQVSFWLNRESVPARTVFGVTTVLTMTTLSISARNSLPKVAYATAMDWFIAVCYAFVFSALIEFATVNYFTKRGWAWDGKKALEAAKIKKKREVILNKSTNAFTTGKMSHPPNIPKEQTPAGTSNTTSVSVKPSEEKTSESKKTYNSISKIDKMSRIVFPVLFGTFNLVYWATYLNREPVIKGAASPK
T2 sequence (P28472 26-473 partner): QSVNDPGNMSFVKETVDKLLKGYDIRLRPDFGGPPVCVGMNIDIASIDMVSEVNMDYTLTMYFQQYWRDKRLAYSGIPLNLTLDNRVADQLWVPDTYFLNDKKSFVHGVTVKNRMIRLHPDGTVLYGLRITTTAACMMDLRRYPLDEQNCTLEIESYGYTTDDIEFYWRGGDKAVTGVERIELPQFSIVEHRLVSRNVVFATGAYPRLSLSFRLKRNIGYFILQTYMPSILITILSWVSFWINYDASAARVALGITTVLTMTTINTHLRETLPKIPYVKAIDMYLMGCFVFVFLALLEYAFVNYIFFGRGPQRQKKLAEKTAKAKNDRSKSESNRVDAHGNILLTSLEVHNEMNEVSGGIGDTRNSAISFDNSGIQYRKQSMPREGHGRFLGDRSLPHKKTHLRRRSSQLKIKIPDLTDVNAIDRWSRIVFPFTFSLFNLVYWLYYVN
T2 sequence (P18507 40-467 limits assumed): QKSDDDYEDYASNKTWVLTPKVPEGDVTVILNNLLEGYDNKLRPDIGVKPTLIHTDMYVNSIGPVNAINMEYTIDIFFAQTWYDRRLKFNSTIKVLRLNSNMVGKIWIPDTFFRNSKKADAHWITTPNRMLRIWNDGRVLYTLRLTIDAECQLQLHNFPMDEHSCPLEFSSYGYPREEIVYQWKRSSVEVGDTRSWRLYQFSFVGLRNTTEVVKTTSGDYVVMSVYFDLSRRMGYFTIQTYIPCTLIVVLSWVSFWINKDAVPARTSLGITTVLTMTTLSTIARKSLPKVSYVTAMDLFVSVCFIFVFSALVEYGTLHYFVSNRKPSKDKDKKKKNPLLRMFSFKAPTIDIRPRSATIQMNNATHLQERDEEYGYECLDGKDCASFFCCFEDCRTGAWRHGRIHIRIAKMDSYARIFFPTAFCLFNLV
Excerpt: Extracting beta band oscillations. […] Here this approach is applied to isolate beta-band oscillations from EEG signals (FIGS. 4,5). This approach entails the estimation of the “background activity” in the frequency range of interest, which is non-oscillatory and/or composed of many oscillatory signals at different neighboring frequencies and therefore appears non-oscillatory. In a first implementation referred to as “locally referenced power”, the “background activity” for a given frequency range of interest (here beta frequency range defined as 16-32 Hz) is estimated by interpolation from power at lower and higher neighboring frequencies, referred to herein as “reference supports” (in this example, reference support points of 12 and 40 Hz are used). Note that in cases where a peak in the alpha band is expected (e.g. a peak around 10 Hz), reference support points that are closer to the beta frequency range on the lower end of the scale may be used, such as e.g. any point between 12 and 16 Hz). The estimated “background activity” is then “removed” (i.e. excluded, such as subtracted) from the power in the frequency range of interest or a power spectral density value at a specific frequency within this frequency range (e.g. the peak frequency, or a predetermined frequency, such as e.g. a frequency identified as the group level peak in a population, e.g. 23 Hz in the present case). The resulting estimate should thereby provide a more specific measure of the oscillatory physiological process under investigation (here GABAA-related beta-band oscillations).
More specifically, the “background power spectral density” at a given frequency may be derived by linear interpolation of logarithmically transformed power and frequencies (see FIG. 4B). The power signal in spectral analysis is typically log transformed by default. […] The “background power” is then estimated as the integral of this “background power spectral density” over the beta frequency range (here defined as 16-32 Hz). In other words, the “background signal” is the area under a straight line extending between the value of the spectrum at each of the support points (“background signal line”), between 16 and 32 Hz. The “locally referenced beta power” is then defined as the logarithm of the ratio between the beta power defined as the integral over the beta frequency range and the estimate of the “background power” (which is equivalent to the logarithm of the beta power defined as the integral over the beta frequency range, minus the logarithm of the estimate of the “background power”, or the area under the power curve in log scale, in the beta frequency range, minus the area under the background signal line in log scale, in the beta frequency range). Note that this metric will be negative when there is a deficit in the signal in this range compared to background.
In a third implementation, an approach using a global fit of the power spectrum composed of a superposition of oscillatory signals and a 1/f^α component was used to estimate the background signal. The 1/f^α component of the fit (estimated as described in Donoghue et al., 2020, see FIG. 4C—note that only step (a) of the method described in Donoghue et al. is used herein, where an aperiodic component is estimated, see FIG. 2a of Donoghue et al.) was used as the estimate of the background power spectral density. Analogously to the above, in a first embodiment of this third implementation, the extracted “1 over f referenced beta power” was used to estimate the background signal, and in a second embodiment the extracted “1 over f referenced beta peak power” was used to estimate the background signal. […]

GABA-A α5 [2] = molecular target: T2, GABA-A α5; set-up: host or cells: brain of healthy volunteers (and individuals with Down syndrome), in vivo EEG; details: cited from earlier work
GABA-A receptors = details: Visser et al., 2003; cited from earlier work
[3] = selective doses 25-100 mg, parallel group, no pre-treatment baseline

T1 sequence (P19969 32-464 limits assumed): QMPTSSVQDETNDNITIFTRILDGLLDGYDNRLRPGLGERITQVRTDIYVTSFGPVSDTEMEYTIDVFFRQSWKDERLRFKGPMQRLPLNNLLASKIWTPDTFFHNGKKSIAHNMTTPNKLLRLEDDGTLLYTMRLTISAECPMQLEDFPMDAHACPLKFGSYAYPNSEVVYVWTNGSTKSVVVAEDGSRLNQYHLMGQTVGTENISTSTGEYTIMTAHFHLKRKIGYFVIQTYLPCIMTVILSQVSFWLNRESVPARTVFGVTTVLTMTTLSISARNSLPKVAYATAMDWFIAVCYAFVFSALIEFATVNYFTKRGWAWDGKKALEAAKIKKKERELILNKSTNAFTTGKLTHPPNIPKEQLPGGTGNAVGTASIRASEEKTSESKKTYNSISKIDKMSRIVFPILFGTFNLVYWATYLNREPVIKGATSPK
T1 sequence (P63079 26-473 partner): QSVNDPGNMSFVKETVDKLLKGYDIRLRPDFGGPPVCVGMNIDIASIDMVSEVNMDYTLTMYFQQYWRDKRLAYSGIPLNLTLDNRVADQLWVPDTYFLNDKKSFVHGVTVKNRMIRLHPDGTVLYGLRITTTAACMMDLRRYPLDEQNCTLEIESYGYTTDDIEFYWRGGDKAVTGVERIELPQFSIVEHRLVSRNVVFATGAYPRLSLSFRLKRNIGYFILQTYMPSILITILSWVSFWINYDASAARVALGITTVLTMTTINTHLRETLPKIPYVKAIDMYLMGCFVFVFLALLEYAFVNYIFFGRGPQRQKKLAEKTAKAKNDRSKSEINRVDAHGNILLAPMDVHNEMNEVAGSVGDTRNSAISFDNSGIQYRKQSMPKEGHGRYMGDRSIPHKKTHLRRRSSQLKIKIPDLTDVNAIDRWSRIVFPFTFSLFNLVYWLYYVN
T1 sequence (P18508 39-466): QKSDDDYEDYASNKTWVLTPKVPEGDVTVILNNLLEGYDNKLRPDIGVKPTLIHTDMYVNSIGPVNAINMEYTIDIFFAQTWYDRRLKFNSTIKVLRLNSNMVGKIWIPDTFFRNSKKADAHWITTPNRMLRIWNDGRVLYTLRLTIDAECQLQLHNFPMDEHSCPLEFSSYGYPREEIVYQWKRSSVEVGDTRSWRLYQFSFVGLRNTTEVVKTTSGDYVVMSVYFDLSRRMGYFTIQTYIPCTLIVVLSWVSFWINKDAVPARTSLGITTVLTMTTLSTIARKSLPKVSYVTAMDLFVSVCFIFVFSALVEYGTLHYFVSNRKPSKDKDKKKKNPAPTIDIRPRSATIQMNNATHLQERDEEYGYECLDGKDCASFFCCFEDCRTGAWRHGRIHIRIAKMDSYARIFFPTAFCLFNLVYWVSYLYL

Compound: C#Cc1ccc2c(c1)C(c1ccccc1F)=N[C@H](C)c1c(C(=O)NC)ncn1-2 [MP-III-022]
- Impairments in social, repetitive and restrictive behavioural domains (GABA-A α5 receptors): prevented impairments in many parameters

Compound: Cc1ccc(-c2noc(C)c2COc2ccc(C(=O)NC3CCOCC3)nn2)cn1 [alogabat]
- Dose range that exhibits the full PD response (within GABA-A a5 receptor selective dose range) (GABA-A α5 [1]; EEG beta-band power change from baseline across dose levels): 25 to 100 mg
- Effect size (ES) placebo vs treated group, locally referenced beta power (GABA-A α5 [1]; both variants (FIG. 4B interpolation, FIG. 4C 1/f fit), selective doses 25-100 mg, parallel group, no pre-treatment baseline, p<0.007): ~0.7
- Frequency specificity of the pharmacodynamic EEG effect (GABA-A α5 [1]; change in power spectrum, 25-100 mg vs placebo, relative to pre-treatment baseline): specific to the beta-band
- Change from baseline in EEG beta-band power (12-30 Hz) (GABA-A α5 [1]; relative to pre-dose baseline, compared to placebo, about 180 min after dosing): increases EEG beta-band power; also recorded: strong and consistent increase in beta-band power
- Effect size (ES) placebo vs treated group, relative beta power (GABA-A α5 [1]; [3]): 0.62
- Separation of placebo and treated group by absolute beta power (GABA-A α5 [1]; [3]): not able to discriminate between the alogabat and the placebo group; also recorded: does not allow separating groups

Compound: Cc1onc(-c2ccc(F)cc2)c1COc1ccc(C(=O)N2CCS(=O)(=O)CC2)cn1 [basmisanil]
- EEG beta-band power (GABA-A α5 [2]; healthy volunteers and individuals with down-syndrome, Goeldner et al., 2022, Hipp et al., 2021): decrease in beta-band power
- EEG beta-band power (GABA-A α5 [2]; healthy volunteers, Hipp et al., 2021, FIG. 6): decrease EEG beta-band power

Compound: CN1Cc2c(C(=O)OC(C)(C)C)ncn2-c2ccsc2C1=O [Ro 19-4603]
- EEG beta-band power, non-selective GABA-A NAMs (GABA-A receptors): decrease beta-band power

Compound: CCc1c(C(=O)OC)ncc2[nH]c3cc(OC)c(OC)cc3c12 [DMCM]
- EEG beta-band power, non-selective GABA-A NAMs (GABA-A receptors): decrease beta-band power

Source: US20260033761A1, “CHARACTERISATION OF NEUROLOGICAL DYSFUNCTION” (Hoffmann-La Roche Inc., priority 2022, published 2026)
